Results on six compounds are retold here after article PMC3006138, “Fexinidazole – A New Oral Nitroimidazole Drug Candidate Entering Clinical Development for the Treatment of Sleeping Sickness” (PLoS Neglected Tropical Diseases, 2010).

“And” between values parts separate entries of the source, which are not always exact repeats. Equal entries are not always repeated. Where two headings read alike, the source gives them in different places.

One series deals with Salmonella typhimurium. Details: method as in ref 58 (Suter et al.). The settings on record: standard strains, ref 58 (Suter et al.); cited from earlier work.
The subject of the next series is colon or liver. The settings on record: mouse, in vivo; cited from earlier work.
For another series, the system named is jejunum or liver. The settings on record: rat, in vivo; cited from earlier work.
A further series has as its system rat liver DNA. The settings on record: in vivo; cited from earlier work.
Another series is described as follows: Caco-2 permeability. The settings on record: human, Caco-2. Here is the method:
(§1) Caco-2 [36] or MDR1-MDCK (Madin Darby canine kidney cells transfected with the human multidrug resistance MDR1 gene) cell monolayers were grown to confluence on collagen-coated, microporous, polycarbonate membranes in 12-well microtitre plates. The buffer for the donor chamber was Hanks balanced salt solution with 10 mM HEPES and 15 mM glucose at pH 7.4. The buffer in the receiver chamber contained the same with the addition of 1% bovine serum albumin (BSA). The test article was added at 5 µM in the assay buffer. […] After 2 h, duplicate aliquots were taken from the donor and receiver chambers and assayed via LC/MS. The apparent permeability and recovery were calculated using standard methods.
(§2) The objective of this study was to determine the bi-directional Caco-2 permeability and efflux limited absorption poten tial of thr ee test compoun ds. […]
(§3) 4 . […] Th e test compound dosing concentrations were 5 µM in th e a ssay bu f fer . […] After two hours, a l iquot s wer e t a ken fr om th e r ecei ver an d don or cha m ber s. E a ch det erm ina ti on wa s per for m ed in dupl i cat e. Th e Lucifer Yellow flux was also measur ed for each mon olayer after bein g subjected to th e test compoun ds to en sur e n o damage was in flicted to th e cell mon olayer s durin g th e flux per iod. All samples wer e assayed by LC/MS/MS usin g electrospray ionization. Analytical conditions are outlined in Attachment I. The apparent permeability, Papp, and per cen t r ecover y wer e calculated as follows:
(§4) Papp = (dCr /dt) x Vr/(AxC) (1)
(§5) P er cen t Rec o ver y = 1 0 0 x ( ( V r x C rfi n a l ) + (Vd x Cd fi n a l ))/(Vd x C N) (2) […]
(§6) dCr /dt is th e slope of th e cumulative con cen tration in th e r eceiver compartment ver sus time in µM s -1. […]
A general note: Caco-2 monolayers are a common model of the intestinal barrier.

Series [1] has as its system MDR1 (human, transfected). The series is described as follows: MDR1-MDCK permeability. The settings on record: dog, MDCK-MDR1. As for the experimental part: as §1
(§7) The objective of this study was to determine the bi-directional MDR1-MDCK permeability and efflux limited absor ption potential of thr ee test compounds. […]
(§8) 4. Th e buff er in th e r ecei ver cha m ber a l so con t a in ed 1% Bovi n e Ser um Al bumin ( BSA) . Th e test compound dosing concentrations were 5 µM in th e a ssay bu f fer . […] After two hours, a l iquot s wer e t a ken fr om th e r ecei ver an d don or cha m ber s. E a ch det erm ina ti on wa s per for m ed in dupl i cat e. Th e Lucifer Yellow flux was also measur ed for each mon olayer after bein g subjected to th e test compoun ds to en sur e n o damage was in flicted to th e cell mon olayer s durin g th e flux per iod. All samples wer e assayed by LC/MS/MS usin g electrospray ionization. Analytical conditions are outlined in Attachment I. The apparent permeability, Papp, and per cen t r ecover y wer e calculated as follows: […]
as §6

For a further series, the system named is human MDR1. The series is described as follows: MDR1-MDCK permeability. The settings on record: dog, MDCK-MDR1. As for the experimental part:
as §1, §7, §8, §6

For series [2], the system named is T. b. brucei GVR35. The series is described as follows: Chronic (stage 2) infection mouse model. It is filed as in vivo. The settings on record: 40 mg/kg×1 ip, day 21.
Series [3] concerns T. b. rhodesiense (STIB 900). The series is described as follows: In vitro trypanocidal assay (Alamar Blue). It is filed as cell-based, Trypanosoma brucei rhodesiense. The settings on record: Trypanosoma brucei, 72 h. As for the experimental part: (§9) 10 µL of Alamar Blue was added for the final 3 h to determine viability. […] The IC50 values were calculated from the sigmoidal inhibition curves. For cytotoxicity, 4×10^4/mL L-6 rat skeletal myoblast cells were used, and incubations and assessments carried out as above.

Series [4] relates to T. b. gambiense (STIB 930). Nature of the series: In vitro trypanocidal assay (Alamar Blue). It is filed as cell-based, Trypanosoma brucei gambiense. The settings on record: Trypanosoma brucei, 72 h. As for the experimental part:
Parasites were cultured with or without the test article at a concentration of 3×10^4/mL in Minimal Essential Medium, according to Baltz et al., with the following modifications: 0.2 mM 2-mercaptoethanol, 1 mM Na-pyruvate, 0.5 mM hypoxanthine and 15% heat inactivated horse serum at 37°C in 5% CO2 in 96-well microtitre plates for 72 h. 10 µL of Alamar Blue was added for the final 3 h to determine viability. The assay was assessed by reading the fluorescence in each well at an excitation wavelength of 536 nm and at an emission wavelength of 588 nm. The IC50 values were calculated from the sigmoidal inhibition curves. For cytotoxicity, 4×10^4/mL L-6 rat skeletal myoblast cells were used, and incubations and assessments carried out as above.
(In general: Resazurin is reduced to fluorescent resorufin, in cell work by metabolically active cells.)

In the next series the test system is L-6 rat myoblast cells. Nature of the series: Cytotoxicity assay. It is filed as cell-based. The settings on record: 72 h. As for the experimental part: as §9
The subject of a further series is T. b. gambiense 130R. Nature of the series: Acute infection mouse model. The settings on record: 4 mg/kg×4 days ip. It is filed as in vivo. Here is the method:
(§10) Female NMRI mice were infected via intraperitoneal injection with bloodstream forms of T. b. rhodesiense STIB900 or T. b. gambiense 130R and treated with test drugs daily for 4 consecutive days, starting on day 3 or 7 after infection, respectively, or with bloodstream forms of T. b brucei GVR35 and treated daily from day 21 after infection for 5 days. Parasitemia was evaluated by tail blood examination and surviving, aparasitaemic mice at 60, 90, or 180 days, respectively, were considered cured.

For series [5], the system named is T. b. brucei GVR35. The series is described as follows: Chronic (stage 2) infection mouse model. The series is classed as in vivo. As for the experimental part: as §10
The conditions of series [6]: stage 2 HAT patients; cited from earlier work.
Another series can be described thus: in vivo. The settings on record: male, NMRI, mouse, po, 200 mg/kg/day.
For another series, the system named is Caco-2 cell monolayers. The series is described as follows: in vitro. The settings on record: Caco-2. As for the experimental part: as §1, §2, §3, §4, §5, §6
For series [7], the system named is MDR1-MDCK cell monolayers. Nature of the series: MDR1-MDCK permeability. The settings on record: plate certification. Here is the method: as §1, §7, §8, §6
Setting [8] is: 15 mg/kg×5 days ip, separate experiment.

Protocol for in vivo: The study was conducted according to the study protocol [1].
gavage daily for 5 consecutive days at a dose of 200 mg/kg in a 5 % tween 80/ 0.5 %
Formulation Preparation and Concentration Check
were prepared according to the procedure already developed [2]; a sufficient volume of each
suspension was prepared in order to support the 5-day repeated oral administration. The
suspensions were stored at +4°C. The supportive stability data for the Fexinidazole
suspension after 7 days at +4°C was performed.
a specific, not validated, HPLC-UV method [2]. Three samples were analyzed for each
Sample Collection and Handling
About 0.05-0.07 mL of blood/sampling time were taken from the saphenous vein using
heparinized tubes (pre-cooled in an ice/water bath) and were centrifuged at 10000g for 3
minutes at 4°C. The separated plasma was stored at -80°C until analysis. Blood was taken at
validated LC-MS-MS methods.
Pharmacokinetic Calculations
Pharmacokinetic evaluation was carried out using a non-compartmental approach with the
aid of the Watson package (v. 6.4.0.04, Thermo Fisher Scientific, Waltham, MA, USA).
For the calculations, pre-dose concentrations of both compounds were set equal to zero.
After both compounds, on Day 5, Cmax and tmax were read from the raw plasma data as the
coordinates of the highest measured concentration. The area under plasma concentration vs.
time curve to finite time, AUC0-t(last), was determined by the linear trapezoidal rule up to the
last detectable concentration. The half-life of the terminal phase, t1/2,z, was determined by
linear regression analysis of the natural-log concentration vs. time curve, where t1/2,z =
ln(2)/slope of the regression line.
Descriptive statistics (mean ± SD, %CV) were reported for plasma concentrations and
pharmacokinetic parameters sorted by compound.
reported to three significant figures.
Plasma concentrations of sulphoxide and sulphone Fexinidazole metabolites were determined
by a LC-MS-MS method. The lower limit of the bioanalytical method was 5 ng/mL (run 1)
(v. 6.4.0.04, Thermo Fisher Scientific, Waltham, MA, USA).
Pharmacokinetic evaluations of the sulphone and sulphoxide metabolites were carried out
using non-compartmental approach with the aid of the Watson package (v. 6.4.0.04, Thermo
Fisher Scientific, Waltham, MA, USA).
After both doses, for the calculations, the pre-dose concentrations of the metabolites were set
Cmax and tmax were read from raw data as the coordinates of the highest measured

Take `O=c1[nH]c2cc([N+](=O)[O-])cc(CNCP(=O)(O)O)c2[nH]c1=O` [AMP397]: in the series on Salmonella typhimurium, the bacterial mutagenicity entry is “positive Ames test results”. Further, in the series with colon or liver, the “mutagenicity in colon or liver” value was “No evidence of mutagenicity”. The “genetic damage in jejunum or liver” value in the series with jejunum or liver is “did not detect any genetic damage”. In addition, in the series on rat liver DNA, the “DNA binding in rat liver” value was “failed to show any DNA binding”.
By Papp A→B is commonly meant how fast a substance crosses the layer from the apical side. One may read the Papp B→A as how fast a substance crosses the layer from the basolateral side. What is called efflux ratio is the permeability from basolateral to apical divided by that in the opposite direction, in the common usage. As for `C[C@H]1O[C@@H](O[C@H]2[C@@H](O)C[C@H](O[C@H]3[C@@H](O)C[C@H](O[C@H]4CC[C@@]5(C)[C@H](CC[C@@H]6[C@@H]5C[C@@H](O)[C@]5(C)[C@@H](C7=CC(=O)OC7)CC[C@]65O)C4)O[C@@H]3C)O[C@@H]2C)C[C@H](O)[C@@H]1O` [Digoxin, reference compound], in “Caco-2 permeability”, the Papp A→B amounted to 0.53 ×10⁻⁶ cm/s, the Papp B→A turned out to be 10.4 ×10⁻⁶ cm/s and the efflux ratio stood at 19.6. In addition, the efflux ratio in [1] came to 68.8. In the series on human MDR1, this compound displayed an apparent permeability from apical to basolateral (Papp A→B) of 0.13 ×10⁻⁶ cm/s and a Papp B→A of 8.83 ×10⁻⁶ cm/s.
Regarding `N=C(N)c1ccc(/N=N/Nc2ccc(C(=N)N)cc2)cc1` [Diminazene, Diminazine diaceturate], in the series with T. b. brucei GVR35 [2], the Cured/infected was 0/4 and the Mean relapse time was determined as 48.6 days.
For orientation: IC50 means the concentration at which inhibition is half-maximal. For the compound `Nc1nc(N)nc(Nc2ccc([As]3SCC(CO)S3)cc2)n1` (centres unmarked) [Melarsoprol, reference compound], the IC50 in [3] was 4 to 9 nM; in series [4] it was 0.0015 µg/mL to 0.003 µg/mL and 4 nM to 6 nM; in the series with L-6 rat myoblast cells, 1.3 µg/mL and 3.3 µM. The Cured/infected was 4/4 in the series with T. b. gambiense 130R, 2/8 in the series on T. b. brucei GVR35 [5] (10 mg/kg×5 days ip) and 4/5 with T. b. brucei GVR35 [5] (setting [8]). For the same compound, the Mean relapse time in the series on T. b. gambiense 130R is recorded as above 90 days; in the series with T. b. brucei GVR35 [5] (10 mg/kg×5 days ip), above 96.6 days; in the series with T. b. brucei GVR35 [5] (setting [8]) it was above 180 days. Also, the cure in the series with T. b. brucei GVR35 [5] (five daily ip injections of 15 mg/kg) worked out at 100%. Also, the treatment-related mortality in [6] is reported as around 5%.
As usually defined, the AUC(0-t) is exposure summed from dosing to a finite time, without extrapolation to infinity. By Cmax is commonly meant the highest concentration seen after dosing. The term Tmax denotes the time at which the peak concentration occurs. The half-life is the time in which the quantity being followed falls by half. Low readings indicate rapid decline, high ones slow decline. For the compound `CC1CS(=O)(=O)CCN1/N=C/c1ccc([N+](=O)[O-])o1` (centres unmarked) [Nifurtimox], the IC50 in series [3] (read-out: IC50) was 0.4 µg/mL and 1.44 µM. Further, the IC50 in series [4] (read-out: IC50) is 0.31 µg/mL and 1.08 µM. Besides, the IC50 in the series with L-6 rat myoblast cells (read-out: IC50) was 25 µg/mL and 87 µM. In “in vivo”, the AUC(0-t) was found to be 45700 ± 5880 ng·h/mL, the concentration peaked (Cmax) at 9250 ± 765 ng/mL, the Tmax was 1.5 ± 1.32 h and the half-life was 3.12 ± 1.45 h.
In the case of Lucifer Yellow [reference compound], the results for the Papp (in the series on Caco-2 cell monolayers; in series [7]) were 0.23 10-6 cm/s and 0.12 10-6 cm/s, respectively.
